From ChEMBL document CHEMBL1156313, “Structure-activity relationship of novel DAPK inhibitors identified by structure-based virtual screening” (Bioorg Med Chem, 2010)
Blank lines part the entries; values can stand above or below the compound they belong to.

Key:
[1] = target: T1, Protein kinase C zeta type (Homo sapiens) (UniProt Q05513); experiment: Inhibition of PKCzeta at 10 uM
T1 sequence (whole entry): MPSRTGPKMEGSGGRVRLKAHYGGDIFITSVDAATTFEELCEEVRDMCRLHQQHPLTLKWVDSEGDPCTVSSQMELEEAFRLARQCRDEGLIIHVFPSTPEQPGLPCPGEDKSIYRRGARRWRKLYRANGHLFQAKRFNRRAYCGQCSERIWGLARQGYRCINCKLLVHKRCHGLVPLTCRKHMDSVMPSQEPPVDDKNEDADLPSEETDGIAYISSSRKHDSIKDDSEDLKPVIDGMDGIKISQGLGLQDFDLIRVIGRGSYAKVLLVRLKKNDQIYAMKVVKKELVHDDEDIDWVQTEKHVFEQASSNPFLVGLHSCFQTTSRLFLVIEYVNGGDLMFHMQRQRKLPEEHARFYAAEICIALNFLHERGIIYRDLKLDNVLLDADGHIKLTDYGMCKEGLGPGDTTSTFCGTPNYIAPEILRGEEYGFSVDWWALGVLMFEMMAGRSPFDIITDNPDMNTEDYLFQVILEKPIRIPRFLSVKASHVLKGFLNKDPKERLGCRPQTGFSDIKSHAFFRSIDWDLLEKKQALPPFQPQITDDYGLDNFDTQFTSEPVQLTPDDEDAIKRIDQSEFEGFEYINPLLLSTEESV

[2] = target: Mitogen-activated protein kinase 14 (Homo sapiens) (UniProt Q16539); experiment: Inhibition of P38alpha at 10 uM
Mitogen-activated protein kinase 14 (Homo sapiens), sequence (Q16539 whole entry): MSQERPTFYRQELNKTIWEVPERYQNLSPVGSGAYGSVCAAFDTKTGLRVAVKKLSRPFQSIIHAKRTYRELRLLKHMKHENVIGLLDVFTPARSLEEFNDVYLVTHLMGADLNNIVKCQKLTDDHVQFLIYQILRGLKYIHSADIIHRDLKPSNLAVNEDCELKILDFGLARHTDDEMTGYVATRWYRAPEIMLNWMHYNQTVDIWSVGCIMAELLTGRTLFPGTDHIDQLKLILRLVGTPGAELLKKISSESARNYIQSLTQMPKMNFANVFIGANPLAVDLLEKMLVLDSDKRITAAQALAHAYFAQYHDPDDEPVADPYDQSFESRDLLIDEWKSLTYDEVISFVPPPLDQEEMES

[3] = target: MAP kinase-activated protein kinase 5 (Homo sapiens) (UniProt Q8IW41); experiment: Inhibition of PRAK at 10 uM
[4] = target: Death-associated protein kinase 1 (Homo sapiens) (UniProt P53355); experiment: Inhibition of DAPK1 at 10 uM
Death-associated protein kinase 1 (Homo sapiens), sequence (P53355 whole entry, looked up): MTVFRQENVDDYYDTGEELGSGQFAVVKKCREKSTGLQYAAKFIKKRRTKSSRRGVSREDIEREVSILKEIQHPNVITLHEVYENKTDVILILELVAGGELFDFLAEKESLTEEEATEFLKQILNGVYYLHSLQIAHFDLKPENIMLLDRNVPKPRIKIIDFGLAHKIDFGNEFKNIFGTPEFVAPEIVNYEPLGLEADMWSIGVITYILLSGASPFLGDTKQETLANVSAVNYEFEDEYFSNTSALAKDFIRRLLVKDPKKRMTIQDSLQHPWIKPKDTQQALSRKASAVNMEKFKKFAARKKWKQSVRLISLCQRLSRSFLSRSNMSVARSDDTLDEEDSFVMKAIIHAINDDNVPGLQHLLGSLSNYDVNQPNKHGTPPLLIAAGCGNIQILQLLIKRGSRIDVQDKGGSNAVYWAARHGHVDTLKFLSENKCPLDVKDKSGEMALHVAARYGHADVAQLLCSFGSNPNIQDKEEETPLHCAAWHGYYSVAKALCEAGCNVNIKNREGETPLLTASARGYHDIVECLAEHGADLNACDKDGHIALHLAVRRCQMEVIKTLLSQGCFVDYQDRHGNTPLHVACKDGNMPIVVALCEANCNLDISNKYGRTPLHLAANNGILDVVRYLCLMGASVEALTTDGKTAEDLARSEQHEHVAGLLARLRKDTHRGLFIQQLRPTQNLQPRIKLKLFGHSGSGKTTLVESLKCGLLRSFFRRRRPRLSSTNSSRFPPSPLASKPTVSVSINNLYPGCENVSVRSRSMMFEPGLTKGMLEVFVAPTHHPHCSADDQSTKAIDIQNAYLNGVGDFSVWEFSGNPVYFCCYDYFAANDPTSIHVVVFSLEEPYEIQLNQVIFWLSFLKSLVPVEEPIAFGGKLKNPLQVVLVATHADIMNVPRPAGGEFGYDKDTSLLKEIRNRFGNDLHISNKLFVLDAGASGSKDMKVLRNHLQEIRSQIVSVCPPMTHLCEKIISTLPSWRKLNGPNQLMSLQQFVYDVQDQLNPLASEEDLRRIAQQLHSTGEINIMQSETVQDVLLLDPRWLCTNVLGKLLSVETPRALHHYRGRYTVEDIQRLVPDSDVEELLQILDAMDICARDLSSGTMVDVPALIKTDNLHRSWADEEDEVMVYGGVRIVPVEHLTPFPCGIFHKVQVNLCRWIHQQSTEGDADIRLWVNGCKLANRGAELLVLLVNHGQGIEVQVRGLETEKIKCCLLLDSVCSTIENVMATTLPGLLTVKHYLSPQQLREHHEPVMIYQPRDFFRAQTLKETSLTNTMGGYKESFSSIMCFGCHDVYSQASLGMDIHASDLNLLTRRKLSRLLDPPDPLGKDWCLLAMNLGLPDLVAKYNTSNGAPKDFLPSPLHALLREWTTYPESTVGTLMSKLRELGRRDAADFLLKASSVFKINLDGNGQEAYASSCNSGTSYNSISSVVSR

[5] = target: Serine/threonine-protein kinase Chk2 (Homo sapiens) (UniProt O96017); experiment: Inhibition of CHK2 at 10 uM
Serine/threonine-protein kinase Chk2 (Homo sapiens), sequence (O96017 whole entry): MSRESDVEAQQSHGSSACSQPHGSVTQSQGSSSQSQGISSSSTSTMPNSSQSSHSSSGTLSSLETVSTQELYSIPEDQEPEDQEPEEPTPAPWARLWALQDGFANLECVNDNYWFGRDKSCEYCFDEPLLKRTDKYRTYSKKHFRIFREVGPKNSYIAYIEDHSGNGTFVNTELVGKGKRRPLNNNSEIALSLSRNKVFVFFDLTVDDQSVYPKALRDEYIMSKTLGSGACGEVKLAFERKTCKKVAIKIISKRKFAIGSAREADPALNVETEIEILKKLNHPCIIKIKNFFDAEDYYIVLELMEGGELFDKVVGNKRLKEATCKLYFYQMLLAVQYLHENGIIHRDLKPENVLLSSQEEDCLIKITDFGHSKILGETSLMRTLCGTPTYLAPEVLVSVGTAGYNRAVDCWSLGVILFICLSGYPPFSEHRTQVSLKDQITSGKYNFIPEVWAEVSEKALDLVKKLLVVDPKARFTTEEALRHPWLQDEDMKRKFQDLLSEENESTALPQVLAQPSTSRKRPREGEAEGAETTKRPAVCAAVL

[6] = target: Mitogen-activated protein kinase 3 (Homo sapiens) (UniProt P27361); experiment: Inhibition of ERK1 at 10 uM
Mitogen-activated protein kinase 3 (Homo sapiens), sequence (P27361 whole entry): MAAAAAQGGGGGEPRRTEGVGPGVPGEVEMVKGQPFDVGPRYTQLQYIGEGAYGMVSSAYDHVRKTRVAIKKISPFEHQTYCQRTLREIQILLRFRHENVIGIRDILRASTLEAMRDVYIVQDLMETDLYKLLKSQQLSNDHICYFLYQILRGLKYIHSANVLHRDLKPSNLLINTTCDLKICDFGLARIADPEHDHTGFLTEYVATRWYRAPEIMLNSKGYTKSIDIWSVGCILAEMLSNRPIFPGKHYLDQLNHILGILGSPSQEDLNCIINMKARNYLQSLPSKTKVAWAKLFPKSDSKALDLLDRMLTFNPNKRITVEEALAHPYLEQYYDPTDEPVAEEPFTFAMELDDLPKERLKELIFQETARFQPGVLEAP

[7] = target: T2, Serine/threonine-protein kinase D2 (Homo sapiens) (UniProt Q9BZL6); experiment: Inhibition of PKD2 at 10 uM
T2 sequence (whole entry): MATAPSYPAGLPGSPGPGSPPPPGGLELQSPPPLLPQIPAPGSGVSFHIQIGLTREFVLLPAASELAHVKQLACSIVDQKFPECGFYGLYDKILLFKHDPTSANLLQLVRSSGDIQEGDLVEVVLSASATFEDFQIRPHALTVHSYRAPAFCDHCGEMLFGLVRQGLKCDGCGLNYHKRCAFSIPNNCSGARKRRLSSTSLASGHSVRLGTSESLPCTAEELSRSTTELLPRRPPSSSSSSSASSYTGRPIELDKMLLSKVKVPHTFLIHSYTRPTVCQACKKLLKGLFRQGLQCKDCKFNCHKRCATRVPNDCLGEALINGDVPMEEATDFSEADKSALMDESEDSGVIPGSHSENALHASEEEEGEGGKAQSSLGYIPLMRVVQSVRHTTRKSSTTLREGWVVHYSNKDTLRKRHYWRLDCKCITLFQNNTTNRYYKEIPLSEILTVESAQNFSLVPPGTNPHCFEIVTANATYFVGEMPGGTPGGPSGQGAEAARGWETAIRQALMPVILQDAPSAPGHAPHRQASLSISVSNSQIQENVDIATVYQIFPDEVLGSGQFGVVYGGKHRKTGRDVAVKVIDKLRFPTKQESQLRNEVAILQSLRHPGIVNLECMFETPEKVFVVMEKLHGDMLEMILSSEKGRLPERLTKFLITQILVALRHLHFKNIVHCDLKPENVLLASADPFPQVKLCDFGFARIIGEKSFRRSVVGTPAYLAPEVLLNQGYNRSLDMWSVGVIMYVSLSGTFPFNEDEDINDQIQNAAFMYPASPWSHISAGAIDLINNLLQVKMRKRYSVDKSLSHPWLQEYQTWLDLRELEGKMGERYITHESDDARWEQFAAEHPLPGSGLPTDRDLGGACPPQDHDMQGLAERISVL

[8] = target: MAP kinase-activated protein kinase 2 (Homo sapiens) (UniProt P49137); experiment: Inhibition of MAPKAPK2 at 10 uM
[9] = Inhibition of PKA at 10 uM
[10] = target: Insulin receptor (Homo sapiens) (UniProt P06213); experiment: Inhibition of INSR at 10 uM
[11] = target: T3, Death-associated protein kinase 3 (Homo sapiens, UniProt O43293); experiment: Inhibition of human recombinant DAPK3 at 1 uM
Target sequence in this assay (O43293 whole entry, looked up): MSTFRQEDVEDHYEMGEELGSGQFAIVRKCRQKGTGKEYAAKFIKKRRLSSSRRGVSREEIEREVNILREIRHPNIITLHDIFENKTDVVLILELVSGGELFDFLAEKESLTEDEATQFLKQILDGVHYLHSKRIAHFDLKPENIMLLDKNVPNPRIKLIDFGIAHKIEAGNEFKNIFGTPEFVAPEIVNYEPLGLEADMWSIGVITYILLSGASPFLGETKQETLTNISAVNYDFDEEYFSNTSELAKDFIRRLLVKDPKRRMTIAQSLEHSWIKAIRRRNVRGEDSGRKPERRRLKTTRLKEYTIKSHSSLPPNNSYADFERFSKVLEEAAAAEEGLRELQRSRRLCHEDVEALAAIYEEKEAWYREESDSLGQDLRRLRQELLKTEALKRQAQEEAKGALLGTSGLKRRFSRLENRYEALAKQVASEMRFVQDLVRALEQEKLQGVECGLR

[12] = target: T3, Death-associated protein kinase 3; experiment: Inhibition of human recombinant DAPK3 at 10 uM
Target sequence in this assay (O43293 whole entry, looked up): as above

[13] = target: Tyrosine-protein kinase ABL1 (Homo sapiens) (UniProt P00519); experiment: Inhibition of ABL at 10 uM
[14] = target: Proto-oncogene tyrosine-protein kinase Src (Homo sapiens) (UniProt P12931); experiment: Inhibition of SRC at 10 uM
[15] = target: T4, Aurora kinase A (Homo sapiens) (UniProt O14965); experiment: Inhibition of Aurora A at 10 uM
T4 sequence (whole entry): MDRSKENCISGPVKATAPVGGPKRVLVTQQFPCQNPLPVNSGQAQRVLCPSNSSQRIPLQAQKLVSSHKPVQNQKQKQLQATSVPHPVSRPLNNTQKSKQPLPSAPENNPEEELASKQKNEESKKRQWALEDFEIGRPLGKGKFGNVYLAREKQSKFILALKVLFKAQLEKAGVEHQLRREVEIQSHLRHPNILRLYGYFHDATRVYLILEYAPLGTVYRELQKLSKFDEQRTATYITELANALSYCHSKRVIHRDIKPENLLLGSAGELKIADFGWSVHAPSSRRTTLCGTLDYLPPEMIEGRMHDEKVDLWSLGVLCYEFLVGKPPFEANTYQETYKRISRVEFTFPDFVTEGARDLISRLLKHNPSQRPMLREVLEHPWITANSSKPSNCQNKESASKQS

[16] = target: Tyrosine-protein kinase Fyn (Homo sapiens) (UniProt P06241); experiment: Inhibition of FYN at 10 uM
[17] = target: RAC-alpha serine/threonine-protein kinase (Homo sapiens) (UniProt P31749); experiment: Inhibition of AKT1 at 10 uM
RAC-alpha serine/threonine-protein kinase (Homo sapiens), sequence (P31749 whole entry): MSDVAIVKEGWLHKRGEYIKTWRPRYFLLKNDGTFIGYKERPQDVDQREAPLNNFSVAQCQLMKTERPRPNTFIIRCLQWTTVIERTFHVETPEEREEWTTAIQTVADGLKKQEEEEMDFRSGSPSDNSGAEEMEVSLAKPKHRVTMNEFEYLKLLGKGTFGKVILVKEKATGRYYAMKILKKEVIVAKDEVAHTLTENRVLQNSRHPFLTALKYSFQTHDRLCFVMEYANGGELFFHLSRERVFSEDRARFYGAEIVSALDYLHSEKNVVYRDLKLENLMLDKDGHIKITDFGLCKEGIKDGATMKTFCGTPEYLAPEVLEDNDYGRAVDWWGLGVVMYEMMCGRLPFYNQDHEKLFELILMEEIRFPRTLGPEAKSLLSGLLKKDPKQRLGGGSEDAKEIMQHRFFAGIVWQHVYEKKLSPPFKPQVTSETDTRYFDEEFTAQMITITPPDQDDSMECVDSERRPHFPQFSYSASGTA

[18] = target: RAC-beta serine/threonine-protein kinase (Homo sapiens) (UniProt P31751); experiment: Inhibition of AKT2 at 10 uM
[19] = target: Tyrosine-protein kinase Lyn (Homo sapiens) (UniProt P07948); experiment: Inhibition of LYN at 10 uM
Tyrosine-protein kinase Lyn (Homo sapiens), sequence (P07948 2-512 limits assumed): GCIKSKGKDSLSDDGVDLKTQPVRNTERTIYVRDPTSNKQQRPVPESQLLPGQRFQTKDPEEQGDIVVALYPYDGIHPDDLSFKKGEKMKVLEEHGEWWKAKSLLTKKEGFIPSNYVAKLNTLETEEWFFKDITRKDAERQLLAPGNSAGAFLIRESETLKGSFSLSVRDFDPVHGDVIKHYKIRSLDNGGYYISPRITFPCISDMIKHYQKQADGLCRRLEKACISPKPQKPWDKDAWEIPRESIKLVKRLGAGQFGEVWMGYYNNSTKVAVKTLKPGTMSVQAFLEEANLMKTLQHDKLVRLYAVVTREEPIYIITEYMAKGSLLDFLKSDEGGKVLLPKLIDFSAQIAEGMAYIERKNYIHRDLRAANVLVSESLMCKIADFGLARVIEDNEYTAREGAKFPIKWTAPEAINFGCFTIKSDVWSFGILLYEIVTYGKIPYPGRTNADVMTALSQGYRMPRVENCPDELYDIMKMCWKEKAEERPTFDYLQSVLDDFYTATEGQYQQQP

[20] = target: T5, Serine/threonine-protein kinase Chk1 (Homo sapiens) (UniProt O14757); experiment: Inhibition of CHK1 at 10 uM
T5 sequence (whole entry): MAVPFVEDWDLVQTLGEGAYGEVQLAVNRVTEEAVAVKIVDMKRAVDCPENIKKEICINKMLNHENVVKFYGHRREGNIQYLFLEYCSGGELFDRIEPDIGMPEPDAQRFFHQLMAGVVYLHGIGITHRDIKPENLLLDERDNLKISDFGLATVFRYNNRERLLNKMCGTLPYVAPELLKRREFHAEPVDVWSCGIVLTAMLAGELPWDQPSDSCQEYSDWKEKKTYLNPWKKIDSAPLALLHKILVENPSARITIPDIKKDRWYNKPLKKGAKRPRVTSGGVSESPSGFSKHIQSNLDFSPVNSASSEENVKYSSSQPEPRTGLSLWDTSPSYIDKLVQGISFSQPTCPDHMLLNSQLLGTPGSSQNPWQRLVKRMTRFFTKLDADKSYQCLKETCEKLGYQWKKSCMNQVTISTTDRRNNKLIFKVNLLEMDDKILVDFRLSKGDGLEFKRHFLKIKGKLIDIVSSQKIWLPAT

[21] = target: Ribosomal protein S6 kinase alpha-1 (Homo sapiens) (UniProt Q15418); experiment: Inhibition of RSK1 at 10 uM
Ribosomal protein S6 kinase alpha-1 (Homo sapiens), sequence (Q15418 whole entry): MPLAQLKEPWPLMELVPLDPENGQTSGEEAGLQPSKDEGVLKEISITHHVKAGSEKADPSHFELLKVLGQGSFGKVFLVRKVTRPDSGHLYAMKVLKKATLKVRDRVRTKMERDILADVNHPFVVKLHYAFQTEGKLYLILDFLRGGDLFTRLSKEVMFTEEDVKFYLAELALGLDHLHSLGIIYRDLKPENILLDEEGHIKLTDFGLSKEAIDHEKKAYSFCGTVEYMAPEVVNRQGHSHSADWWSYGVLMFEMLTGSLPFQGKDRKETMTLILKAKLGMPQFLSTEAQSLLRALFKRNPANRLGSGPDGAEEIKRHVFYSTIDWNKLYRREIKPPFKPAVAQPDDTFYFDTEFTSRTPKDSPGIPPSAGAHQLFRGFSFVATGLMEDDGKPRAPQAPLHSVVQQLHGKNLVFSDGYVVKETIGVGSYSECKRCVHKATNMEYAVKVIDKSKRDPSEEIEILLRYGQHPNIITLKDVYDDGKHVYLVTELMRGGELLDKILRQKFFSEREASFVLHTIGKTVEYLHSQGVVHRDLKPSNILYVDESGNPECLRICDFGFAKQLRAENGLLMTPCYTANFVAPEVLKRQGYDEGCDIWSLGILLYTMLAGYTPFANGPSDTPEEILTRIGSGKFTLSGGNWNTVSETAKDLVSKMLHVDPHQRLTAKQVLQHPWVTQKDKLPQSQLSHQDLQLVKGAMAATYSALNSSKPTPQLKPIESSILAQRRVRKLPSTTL

[22] = target: T3, Death-associated protein kinase 3; experiment: Inhibition of human recombinant DAPK3
Target sequence in this assay (O43293 whole entry): as the sequence (O43293 whole entry, looked up) above

[23] = target: Mitogen-activated protein kinase 1 (Homo sapiens) (UniProt P28482); experiment: Inhibition of ERK2 at 10 uM
[24] = target: Tyrosine-protein kinase Lck (Homo sapiens) (UniProt P06239); experiment: Inhibition of LCK at 10 uM
[25] = target: Glycogen synthase kinase-3 beta (Homo sapiens) (UniProt P49841); experiment: Inhibition of GSK3-beta at 10 uM
[26] = target: Hepatocyte growth factor receptor (Homo sapiens) (UniProt P08581); experiment: Inhibition of MET at 10 uM

- inhibition [1]: 5%
- inhibition [2]: 5%
- inhibition [3]: 10%
- inhibition [5]: 19%
- inhibition [6]: 18%
- inhibition [7]: 11%
- inhibition [8]: 2%
- inhibition [9]: 19%
- inhibition [10]: 0%
- inhibition [13]: 7%
- inhibition [14]: 2%
- inhibition [15]: 16%
- inhibition [16]: 9%
- inhibition [17]: 12%
- inhibition [18]: 28%
- inhibition [19]: 0%
- inhibition [20]: 5%
- inhibition [21]: 13%
SMILES: Cc1cc(C2=N/C(=C\c3cccnc3)C(=O)O2)ccc1Br
- inhibition [4]: 82%
- inhibition [11]: 88%
- inhibition [12]: 94%
- IC50 [22]: 278 nM

SMILES: O=C1OC(c2cc(I)ccc2Cl)=N/C1=C\c1ccncc1
- inhibition [11]: 83%
- inhibition [12]: 97%
- IC50 [22]: 227 nM

SMILES: O=C1OC(c2ccccc2)=N/C1=C\c1ccncc1
- inhibition [11]: 0%
- inhibition [12]: 1%

SMILES: COc1cc(C2=N/C(=C\c3cccnc3)C(=O)O2)cc(OC)c1OC
- inhibition [11]: 26%
- inhibition [12]: 33%

SMILES: O=C1OC(C23CC4CC(CC(C4)C2)C3)=N/C1=C\c1cccnc1
- inhibition [12]: 45%

SMILES: O=C1OC(c2ccccc2)=N/C1=C\c1ccccc1
- inhibition [12]: 4%

SMILES: O=C1OC(c2ccc(Cl)c([N+](=O)[O-])c2)=N/C1=C\c1cccnc1
- inhibition [11]: 100%
- inhibition [12]: 100%
- IC50 [22]: 278 nM

SMILES: COc1cccc(C2=N/C(=C\c3cccnc3)C(=O)O2)c1
- inhibition [11]: 99%
- inhibition [12]: 100%
- IC50 [22]: 395 nM

SMILES: O=C1OC(c2cccc(Cl)c2)=N/C1=C\c1cccnc1
- inhibition [11]: 85%
- inhibition [12]: 97%
- IC50 [22]: 360 nM

SMILES: O=C1OC(c2ccc([N+](=O)[O-])cc2)=N/C1=C\c1cccnc1
- inhibition [11]: 90%
- inhibition [12]: 94%
- IC50 [22]: 291 nM

SMILES: O=C1OC(c2ccc(Cl)cc2Cl)=N/C1=C\c1cccnc1
- inhibition [11]: 42%
- inhibition [12]: 78%

SMILES: O=C1OC(c2ccc(Cl)cc2)=C/C1=C\c1cccnc1
- inhibition [12]: 3%

SMILES: O=C1OC(c2cccc([N+](=O)[O-])c2)=N/C1=C\c1ccncc1
- inhibition [11]: 0%
- inhibition [12]: 0%

SMILES: O=C1OC(c2ccc([N+](=O)[O-])cc2)=N/C1=C\c1ccncc1
- inhibition [11]: 0%
- inhibition [12]: 2%

- inhibition [1]: 2%
- inhibition [2]: 1%
- inhibition [6]: 0%
- inhibition [7]: 1%
- inhibition [8]: 3%
- inhibition [10]: 3%
- inhibition [13]: 1%
- inhibition [14]: 5%
- inhibition [15]: 3%
- inhibition [17]: 5%
- inhibition [18]: 6%
- inhibition [20]: 5%
- inhibition [21]: 15%
SMILES: Cc1cccc(C2=N/C(=C\c3cccnc3)C(=O)O2)c1
- inhibition [4]: 98%
- inhibition [11]: 68%
- inhibition [12]: 96%
- IC50 [22]: 714 nM

SMILES: COc1ccc(C2=N/C(=C\c3cccnc3)C(=O)O2)cc1OC
- inhibition [11]: 14%
- inhibition [12]: 36%

SMILES: O=C1OC(c2ccc(Cl)c([N+](=O)[O-])c2)=N/C1=C\c1ccncc1
- inhibition [11]: 0%
- inhibition [12]: 10%

SMILES: O=C1N=C(N2CCCCC2)S/C1=C\c1cccnc1
- inhibition [12]: 29%

SMILES: COc1ccc(C2=N/C(=C\c3cccnc3)C(=O)O2)cc1Br
- inhibition [11]: 32%
- inhibition [12]: 32%

- inhibition [23]: 7%
- inhibition [24]: 9%
- inhibition [1]: 3%
- inhibition [2]: 3%
- inhibition [25]: 9%
- inhibition [5]: 4%
- inhibition [6]: 16%
- inhibition [7]: 7%
- inhibition [8]: 5%
- inhibition [10]: 7%
- inhibition [13]: 16%
- inhibition [26]: 3%
- inhibition [14]: 13%
- inhibition [15]: 6%
- inhibition [16]: 6%
- inhibition [17]: 12%
- inhibition [18]: 13%
- inhibition [19]: 10%
- inhibition [20]: 3%
- inhibition [21]: 5%
SMILES: O=C1OC(c2ccccc2)=N/C1=C\c1cccnc1
- inhibition [4]: 98%
- IC50 [22]: 583 nM

- inhibition [23]: 34%
- inhibition [24]: 3%
- inhibition [1]: 8%
- inhibition [2]: 8%
- inhibition [25]: 0%
- inhibition [5]: 7%
- inhibition [6]: 25%
- inhibition [7]: 3%
- inhibition [9]: 2%
- inhibition [10]: 7%
- inhibition [14]: 6%
- inhibition [15]: 8%
- inhibition [16]: 2%
- inhibition [17]: 12%
- inhibition [18]: 18%
- inhibition [19]: 2%
- inhibition [20]: 7%
SMILES: O=C1OC(c2ccc(F)c(F)c2)=N/C1=C\c1cccnc1
- inhibition [4]: 97%
- inhibition [11]: 89%
- inhibition [12]: 98%
- IC50 [22]: 346 nM

SMILES: Cc1ccc(C2=N/C(=C\c3cccnc3)C(=O)O2)cc1[N+](=O)[O-]
- inhibition [11]: 72%
- inhibition [12]: 90%
- IC50 [22]: 534 nM

SMILES: O=C1OC(c2cccc(Br)c2)=N/C1=C\c1ccncc1
- inhibition [11]: 1%
- inhibition [12]: 0%

SMILES: O=C1OC(c2cccc(Br)c2)=N/C1=C\c1cccnc1
- inhibition [11]: 100%
- inhibition [12]: 100%
- IC50 [22]: 148 nM

SMILES: COc1ccc(C2=N/C(=C\c3cccnc3)C(=O)O2)c(Br)c1
- inhibition [11]: 100%
- inhibition [12]: 92%
- IC50 [22]: 157 nM
